Reference: the NIST ThermoML archive (doi:10.1016/j.jct.2015.07.047)
Numbers after ± are expanded uncertainties.

Conditions: Liquid, Closed cell (Static) method

Cl[SiH2]Cl [dichlorosilane]
Conditions | vapor or sublimation pressure [kPa]
313.36 K | 290.6 ± 1.1
323.35 K | 384.1 ± 1.2
333.19 K | 496.6 ± 1.3
343.04 K | 631.7 ± 1.5
352.98 K | 793.4 ± 1.7
362.94 K | 982.4 ± 2

Cl[Si](Cl)(Cl)Cl [silicon tetrachloride]
Conditions | vapor or sublimation pressure [kPa]
318.27 K | 66.7 ± 0.9
328.25 K | 94 ± 0.9
338.31 K | 129.8 ± 0.9
348.08 K | 172.9 ± 1
358.17 K | 228.4 ± 1
368.17 K | 295.3 ± 1.1

Cl[SiH](Cl)Cl [trichlorosilane]
Conditions | vapor or sublimation pressure [kPa]
313.34 K | 134.1 ± 1
323.33 K | 183.5 ± 1
333.17 K | 245 ± 1.1
343 K | 321 ± 1.1
352.96 K | 414.5 ± 1.3
362.96 K | 528.8 ± 1.4
